One block for each compound: values may come before it.
Assays:
[1] = tested on: transgenic mouse glioma cells (neurosphere cultures); assay: CytoTox-Fluor cytotoxicity assay, neurosphere glioma cultures; type: cell-based; settings: cdkn2a deletion, PDGFB amplification, TRPV1-deficient; 24 h; 5 at 20 μM, CBD at 10 μM
Experimental: FIGS. 5A-D. Activity of 5 against neurosphere glioma cell cultures with clinically relevant mutations. Transgenic mouse glioma cells of defined molecular subtypes were generated by forced expression of EGFRvIII (classical GBM subtype), PDGFB (proneural GBM subtype) in cdkn2a-deficient and cdkn2a/TRPV1-doubly deficient subventricular neural precursors (NPC). These primary cell cultures were treated for 24 hours either with 10 μM CBD versus a corresponding vehicle-control (containing 0.01% DMSO) or 20 μM of 5 versus vehicle control (0.02% DMSO). Cytotoxicity was measured 24 h after incubation and base-line cytotoxicity levels in the controls were arbitrarily defined as 1. Read-outs from treated cells were normalized to their respective vehicle controls and -fold change of relative cytotoxicity was calculated. Each bar represents the mean±SD from two independent experiments; statistical significance, as determined by unpaired t-tests, is indicated: *** represents p<0.001; ** p<0.005; * p=0.0257; ns not significant).
Human mammary carcinoma MCF-7 (ATCC HTB22) cells were cultured in RPMI supplemented with 10% FBS. […]
The CytoTox-Fluor cytotoxicity assay from Promega has been used according to manufacturer's instructions. […] After 2 hours of incubation at 37° C., the fluorescence intensity was measured using the Tecan InfiniteF200 fluorescence plate reader (485 nm Ex/520 nm Em). […]

[2] = tested on: U373 human glioma cell line; assay: Quantitative videomicroscopy, U373; type: cell-based; settings: at GI50 concentrations (Table 1)
Experimental: FIG. 8. In vitro videomicroscopic analysis of the anticancer effects of 1 and its C12-Wittig derivatives 5 and 13. The U373 human glioma cell line was treated with polygodial, 5 and 13 at their mean GI50 concentrations (Table 1) or left untreated. Videomicroscopy enabled taking pictures of the culture field every 4 minutes. The experiment was conducted once in triplicate. While the morphology of cells treated with 1 was fixed over time, 5 and 13 exerted cytostatic effects on U373 cells.
In an effort to gain insight into possible mechanisms associated with antiproliferative properties of 1 and the C12-Wittig derivatives, the morphological changes in cells treated with these compounds were studied with computer-assisted phase-contrast microscopy (Luchetti et al., 2012) (quantitative videomicroscopy).

[3] = tested on: human U373 glioblastoma (GBM); assay: MTT antiproliferative assay, U373; type: cell-based; settings: Homo sapiens, U373 MG, 72 h treatment, sextuplicates, read-out: GI50 in vitro values, U373
Experimental: (§1) Human mammary carcinoma MCF-7 (ATCC HTB22) cells were cultured in RPMI supplemented with 10% FBS. The U87 cells (ATCC HTB-14) were cultured in DMEM culture medium, while the A549 cells (DSMZ ACC107) were cultured in RPMI culture medium supplemented with 10% heat-inactivated FBS. The GBM Hs683 (ATCC HTB-138) cells were cultivated in DMEM supplemented with 10% FBS. The human uterine sarcoma MES-SA (ATCC CRL1966) and MES-SA/D×5 cells were cultured in RPMI-1640 medium supplemented with 10% FBS with MES SA/D×5 maintained in the presence of 500 nM Doxorubicin (Sigma). SKMEL-28 cells (ATCC HTB72) and U373 GBM cells (ECACC 08061901) were cultured in RPMI culture medium supplemented with 10% heat-inactivated FBS. Cell culture media were supplemented with 4 mM glutamine (Lonza code BE17-605E), 100 μg/mL gentamicin (Lonza code 17-5182), and penicillin-streptomycin (200 units/ml and 200 μg/ml) (Lonza code 17-602E). The MDA-MB-231 (ATCC HTB-26) epithelial mammary adenocarcinoma cells were cultured in Eagle's minimum essential medium (EMEM; Invitrogen) containing 5% fetal calf serum (FCS, Cambrex), 2 mM L-glutamine (Invitrogen), 0.06% HEPES (Invitrogen) and penicillin (50 IU/ml)/streptomycin (50 µg/ml; Invitrogen) at 37° C. in a humidified atmosphere of 5% CO2 in air. Transformed mouse NPCs were cultured in suspension under neurosphere conditions at 37° C. in a humidified atmosphere of […] and 5% CO2 in DMEM F12 (Invitrogen 11320-074) supplemented with 1×B27 supplement (Invitrogen 17504-044), 5% penicillin-streptomycin (Biochrom 10378-017), 10 ng/ml EGF (R&D systems 236-EG), 10 ng/ml FGF (PeproTech 100-18B).
(§2) Antiproliferative properties of the synthesized compounds were evaluated by the MTT assay. All compounds were dissolved in DMSO at a concentration of either 100 μM or 50 μM prior to cell treatment. The cells were trypsinized and seeded at various cell concentrations depending on the cell type. The cells were grown for 24 h to 72 h, treated with compounds at concentrations ranging from 0.001 to 100 μM and incubated for 48 or 72 h in 100 or 200 μL media depending on the cell line used. The number of experiments and replicates varied depending on the cell line. Cells treated with 0.1% DMSO were used as a negative control; 1 μM PAO was used as a positive control.
(§3) The synthesized C12-Wittig derivatives were evaluated for antiproliferative activities in a panel of cancer cell lines that included apoptosis-resistant human U373 glioblastoma (GBM) (Lefranc et al., 2013), human A549 non-small cell lung cancer (NSCLC) and human SKMEL-28 melanoma (Mathieu et al., 2009) as well as apoptosis-sensitive human Hs683 anaplastic oligodendroglioma (Lefranc et al., 2013) and human MCF-7 breast cancer (Frolova et al., 2013).

[4] = tested on: U373 cells; assay: Trypan blue viability assay, U373; type: cell-based, human; settings: 72 h treatment
Experimental: FIG. 9. Viability of U373 cells by trypan blue staining. U373 cells were treated for 72 h with 1 or 13 and stained with trypan blue. The experiment was conducted once in triplicate. After having taken pictures, cells were fixed with ice-cold methanol and again stained with trypan blue as internal positive control.
To confirm the results obtained in the videomicroscopy experiments, trypan blue assay was employed to detect necrotic and late apoptotic cells that had lost their plasma membrane integrity (FIG. 9). […] These observations support the results of the MTT assay and provide an explanation for the effectiveness of the C12-Wittig derivatives against cells, which display resistance to apoptosis induction. In contrast, at the concentrations necessary to induce cancer cell death 1 behaves as a toxic fixative compound of little promise as a potential drug.

[5] = tested on: panel of cancer cell lines (A549, SKMEL-28, MCF-7, U373, Hs683); assay: MTT antiproliferative assay, panel of five cancer cell lines; type: cell-based, human; settings: Homo sapiens; mean over five cell lines, 72 h treatment, MTT assay; read-out: GI50 in vitro values, Mean + SEM
Experimental: as §2, §3

[6] = tested on: human SKMEL-28 melanoma; assay: MTT antiproliferative assay, SKMEL-28; type: cell-based; settings: Homo sapiens, SK-MEL-28, 72 h treatment, sextuplicates, read-out: GI50 in vitro values, SKMEL-28
Experimental: as §1, §2, §3

[7] = tested on: human Hs683 anaplastic oligodendroglioma; assay: MTT antiproliferative assay, Hs683; type: cell-based; settings: Homo sapiens, Hs 683, 72 h treatment, sextuplicates, read-out: GI50 in vitro values, Hs683
Experimental: as §1, §2, §3

[8] = tested on: human MCF-7 breast cancer; assay: MTT antiproliferative assay, MCF-7; type: cell-based; settings: Homo sapiens, MCF7, 72 h treatment, sextuplicates, read-out: GI50 in vitro values, MCF-7
Experimental: as §1, §2, §3

[9] = tested on: human A549 non-small cell lung cancer (NSCLC); assay: MTT antiproliferative assay, A549; type: cell-based
Experimental: as §1, §2, §3

[10] = tested on: MDR uterine sarcoma cell line MES-SA/Dx5; assay: MTT antiproliferative assay, MDR MES-SA/Dx5; type: cell-based, human
Experimental: as §1, §2
Selection of the MES-SA/D×5 cell line was done according to Harker et al. (Harker & Sikic, 1985). The cells were split and allowed to adhere overnight. The next day cells were initially exposed to doxorubicin (DOX) at the concentration of 100 nM, which represented the GI50 concentration. The cells were maintained at this DOX concentration until their growth rate reached that of the untreated cells. The DOX concentration was then increased in two-fold increments following the same growth criteria at each concentration to a final DOX concentration of 500 nM. Each new DOX concentration required approximately 2 passages to reach the growth rate of the untreated cells.
Often, tumors initially respond to chemotherapy but eventually become refractory to the continuing treatment. Such acquired resistance commonly occurs through the development of a multi-drug resistant phenotype (MDR) (Gottesman et al., 2002 and Saraswathy & Gong, 2013) affecting many common chemotherapeutic agents, including the vinca alkaloids (Chen et al., 2000) and taxanes (Geney et al., 2002). In addition, the development of apoptosis resistance and MDR mechanisms is often related and concurrent (Ruefli et al., 2002 and Johnstone et al., 1999), and thus it was of interest to evaluate 5 against MDR cells. Towards this end, the MDR uterine sarcoma cell line MES-SA/D×5, established by growing the parent uterine sarcoma MES-SA in the presence of increasing concentrations of doxorubicin and resistant to multiple functionally and structurally unrelated molecules (Harker & Sikic, 1985), was utilized.

[11] = tested on: uterine sarcoma MES-SA cells; assay: MTT antiproliferative assay, MES-SA; type: cell-based, human; settings: Homo sapiens, MES-SA, 48 h treatment, relative to DMSO control, read-out: GI50 in vitro values, MES-SA
Experimental: as §1
(§4) Antiproliferative properties of the synthesized compounds were evaluated by the MTT assay. All compounds were dissolved in DMSO at a concentration of either 100 μM or 50 μM prior to cell treatment. The cells were trypsinized and seeded at various cell concentrations depending on the cell type. […]

[12] = tested on: U87 glioblastoma cell cultures; assay: MTT growth curves, U87; type: cell-based, human; settings: apoptosis-resistant U87 GBM; concentrations up to 100 μM
Experimental: as §1, §4

SMILES: C=C(C)[C@@H]1CCC(C)=C[C@H]1c1c(O)cc(CCCCC)cc1O [CBD, cannabidiol, reference compound]
cytotoxicity against GBM neurosphere cultures lacking the TRPV1 gene [1]: loses its activity

GI50 [3]: 35 µM | GI50 [5]: 33 ± 1 µM | GI50 [6]: 36 µM | GI50 [7]: 33 µM | GI50 [8]: 30 µM | GI50 ([9]; Homo sapiens, A549, 72 h treatment, MTT assay, sextuplicates, read-out: GI50 in vitro values, A549): 30 µM
SMILES: C#CCCCOC(=O)/C=C/C1=CC[C@H]2C(C)(C)CCC[C@]2(C)[C@H]1C=O [Compound 13]
morphological effect by videomicroscopy [2]: inhibited cancer cell proliferation without inducing cell death | viability by trypan blue staining [4]: still alive after 72 hr of treatment

GI50 ([10]; Homo sapiens, MES-SA/Dx5, 48 h treatment, MTT assay, relative to DMSO control, read-out: GI50 in vitro values, MES-SA/Dx5): 10 µM | GI50 [11]: 0.007 µM
SMILES: CC(=O)O[C@H]1C(=O)[C@@]2(C)[C@H]([C@H](OC(=O)c3ccccc3)[C@]3(O)C[C@H](OC(=O)[C@H](O)[C@@H](NC(=O)c4ccccc4)c4ccccc4)C(C)=C1C3(C)C)[C@]1(OC(C)=O)CO[C@@H]1C[C@@H]2O [Paclitaxel]
change of potency against MES-SA/Dx5 MDR cell line as compared with parent MES-SA cells ([10]; 48 h MTT): lost their potency by a factor of a thousand | effect on proliferation/viability of all cells, U87 [12]: no effect on proliferation of ca. 50% of cells | effect on proliferation/viability of all cells, A549 ([9]; apoptosis-resistant A549 NSCLC, concentrations up to 100 μM): no effect on proliferation of ca. 50% of cells

Source: patent US20180237362A1, “NOVEL POLYGODIAL ANALOGS FOR THE TREATMENT OF CANCER AND OTHER PROLIFERATIVE DISEASES” (THE BOARD OF REGENTS OF THE UNIVERSITY OF TAXAS SYSTEM, priority 2015, published 2018)
